From a melting point compilation (Tetko et al.; mined from patent text by program, amines drawn as free bases though some values may be those of a salt)

| SMILES | melting point |
| --- | --- |
| O=C1SC(=O)C(F)=C1F | 52 to 56 °C |
| COC(=O)N1CCN(c2ccc(N3CC(CNC(C)=O)OC3=O)cc2F)CC1 (centres undefined) | 177 to 179 °C |
| O=c1oc(-c2ccc(F)cc2)nc2cccc(F)c12 | 189 to 193 °C |
| CC(=O)Nc1ccc2nc(CN3[C@H](C)CCC[C@@H]3C)ccc2c1 | 120 to 122 °C |
| CCOCc1nc2c(N)nc3cc(-c4ccccc4)ccc3c2n1CC1CCN(C(=O)OC(C)(C)C)CC1 | 194 to 195 °C |
| CCOC(=O)C1OC(n2cnc3c(N)ncnc32)C(O)C1N (centres undefined) | 179 to 182 °C |
| O=C(Nc1ccccc1)c1cccc(Oc2ccccc2)c1 | 111 to 112 °C |
| CCNC(=O)N(CC)C(=O)Nc1ccn(Cc2ccccc2Cl)c(=O)c1NC(=O)N[C@@H](CC(=O)O)c1ccc(C)cc1 | 128 to 130 °C |
| CN(C)N=Nc1cc(-c2ccccc2)sc1C(N)=O | 220 to 222 °C |
| C[C@H]1CCCC(C)(C)[C@@H]1[C@@H](O)c1cccc(Cl)c1 | 58 to 60 °C |
| O=C1CC(=O)[C@H](CC2CCCCC2)N1 | 165 to 167 °C |
| Cc1cccc(NC(=O)NC2N=C(c3ccccc3F)c3ccccc3N(Cc3cccnc3)C2=O)c1 (racemic) | 242 to 243 °C |
| COc1cccc2c1CCCC2=NNc1nc(-c2cccc([N+](=O)[O-])c2)cs1 | 185 °C |
| CC1=CC(C)(C)Cc2c1nc(C(C)C)c(C(C)O)c2-c1ccc(F)cc1 (centres undefined) | 117 to 119 °C |
| S=c1ncn(-c2ccc(Cl)cc2)[nH]1 | 222 to 224 °C |
| Cc1noc(NS(=O)(=O)c2c(C)sc3ccccc23)c1Br | 131 to 133 °C |
| O=C(c1ccc(Br)s1)N(Cc1cccc(O)c1)C1CC1 | 128 °C |
| NS(=O)(=O)OCCOc1ccccc1Cl | 84.5 to 86 °C |
| COc1cn(C)c(=O)c(O)n1 | 201 to 204 °C |
| CCNC(=O)C1=C(OC(C)C)c2cc(OC)ccc2S1=O (centres undefined) | 88 to 90 °C |
| Cn1nc(-c2cc(O)c(Cl)cc2F)c(Cl)c1C(F)(F)F | 123 to 126 °C |
| C=C(OCCc1nc(C(C)C)c(Sc2cc(Cl)cc(Cl)c2)n1C)C12CC3CC(CC(C3)C1)C2 | 114 to 116 °C |
| Oc1cccc(Cc2n[nH]c3ccccc23)c1 | 170 to 172 °C |
| CCOC(=O)c1ccc(-c2coc(-c3ccc(C(F)(F)F)cc3)n2)cc1 | 168 to 170 °C |
| NC(=O)c1ncc(Cl)cc1N | 152 to 156 °C |
| CCS(=O)(=O)CCC(=O)NNC(=O)N1Cc2ccccc2Oc2ccc(N)cc21 | 172 to 179 °C |

| SMILES | melting point |
| --- | --- |
| CCOC(=O)CNC(=O)CCC(=O)OC | 61 to 62 °C |
| O=C(CCCCCCNC(=O)c1ccc(C(C(=O)Nc2cccc3cccnc23)C(=O)Nc2cccc3cccnc23)cc1)NO | 212 to 215 °C |
| O=C(O)Cn1c(=O)c(=O)[nH]c2cc(Br)ccc21 | > 320 °C |
| CCCCOc1nc(N)c2[nH]c(=O)n(CCCNc3cccc(CC(=O)OC)c3)c2n1 | 208 to 209 °C |
| Cc1cc(O)ccc1-n1cc(C(=O)O)c(=O)cc1C1=CCCC1 | 211 to 213 °C |
| CC(C)n1nc(-c2sc(N)nc2-c2cccc(Cl)c2)ccc1=O | 236 to 237 °C |
| CCn1nc(C(F)(F)F)c(CS(=O)(=O)C2=NOC(C)(CCl)C2)c1OC (centres undefined) | 139 to 140 °C |
| O=S(=O)(Cl)c1cccc2[nH]nnc12 | 173 to 175 °C |
| CC(=O)Nc1c(C(=O)c2ccoc2)[nH]c2cc(Cl)ccc12 | 217 to 219 °C |
| CCOC(=O)c1ccc(NC(=O)NC2CN(C3CCCCC3)c3ccccc3N(CC(=O)c3cccs3)C2=O)cc1 (centres undefined) | 219 to 220 °C |
| CC(=O)CCc1ccc2c(c1)Cc1ccccc1-2 | 99 to 101 °C |
| O=C(Nc1cccc(C(F)(F)F)c1)c1cccnc1NCCc1ccncc1 | 128 to 138 °C |
| CC(=O)NNc1ccc(NC(=S)Nc2ccccc2)cc1 | 205 to 207 °C |
| O=C(CN1C(=O)c2ccccc2C1=O)Nc1ccccc1Nc1ccccc1 | 191 °C |
| NC(=O)COC(=O)c1c(Cl)ccc(Cl)c1Cl | 158 to 160 °C |
| c1cnc2ccc(Nc3nccc(-c4ccc(N5CCNCC5)nc4)n3)cc2c1 | 199 to 200 °C |
| COC(=O)c1c(-c2ccc(C#N)cc2)cn(-c2ccc(Br)cc2)c1C(=O)OC | 178 to 180 °C |
| CSc1nc(OC(F)F)cc(OC(F)F)n1 | 46 to 48 °C |
| CCCOc1ccc(/C=C/c2cc(OC)c(OC)c(OC)c2)cc1 | 82 to 83 °C |
| OC1CSC(Oc2ccc(-c3ccncc3)nc2F)C(O)C1O (centres undefined) | 196 °C |
| CC(O)c1ccc(-c2ccnc(Nc3ccc4c(c3)OCCO4)c2)cc1 (centres undefined) | 55.9 to 61.5 °C |
| CCc1cc(N)cc(CC)n1 | 133 to 137 °C |
| COc1cc(C(=O)ON=C(C)N)cc([N+](=O)[O-])c1OC | 165 to 166 °C |
| OCc1cc(I)cc(I)c1I | 156 to 159 °C |
| COc1ccc2c(c1)CCC1C2=CCC2(C)C(O)CCC12 (centres undefined) | 95 to 97 °C |
| Cc1ccc(C)c(-c2sc(NC(=O)[C@@H]3C[C@@H]4CC[C@H]3C4)c(C#N)c2Cl)c1 | 117 to 119 °C |

| SMILES | melting point |
| --- | --- |
| COC(=O)C(C)c1ccc(N2Cc3ccccc3C2=O)cc1 (centres undefined) | 128 °C |
| O=c1c(C2=Nc3ccccc3S(=O)(=O)N2)c(O)c2ccccc2n1CC1CCCCC1 | 232 to 235 °C |
| Cn1nc(-c2cc(C(=O)O)c(Cl)cc2Cl)c(Cl)c1OC(F)F | 159 to 160 °C |
| Cc1ccc(S(=O)(=O)n2c(=O)[nH]c3cc(Cl)ccc3c2=O)cc1C | > 250 °C |
| Cc1cc(-c2ccc(C(F)(F)F)cc2)cn2c(-c3nc(-c4ccc(S(N)(=O)=O)cc4)no3)cnc12 | 290 °C |
| Cc1ccc(C)n1-c1ccccc1OCC(O)CNC(C)C (centres undefined) | 73 to 75 °C |
| COCCOc1ccc(NC(=O)OCc2ccccc2)cc1C(=O)O | 130 to 131 °C |
| Cc1cccc(-c2cn(C)cc(-c3ccccc3)c2=O)c1 | 79.5 °C |
| COc1ccc(Br)c(CN(CC(F)(F)F)C(=O)OC(C)(C)C)c1 | 86 to 89 °C |
| CC(=O)Nc1ccc(SC(F)(F)C(F)F)cc1 | 134 to 135 °C |
| Cc1cccnc1NC(=O)OC(C)(C)C | 132 to 133 °C |
| CCCSc1ccc(C(=O)C(=O)O)[nH]1 | 87 °C |
| COc1c2c(c(OC)c(OC)c1OC)CC(CCCCCCCCOc1ccc(Cl)cc1)C2 | 38 to 42 °C |
| CC(C)NCC(O)COc1cccc2c1CC1OC1C2 (centres undefined) | 106 to 110 °C |
| Cc1cccc(OCC(O)CN2C(=O)C3CCCN3c3ncccc32)c1C (centres undefined) | 123 to 125 °C |
| COC(=O)c1cccc(Oc2cccc(-c3nnc(N(Cc4ccc(C(F)(F)P(=O)(O)O)c(Cl)c4)c4ccc(Cl)c(Cl)c4)s3)c2)c1 | 73 to 76 °C |
| COc1ccc(C2=NN(C3CCN(c4ncnc5sccc45)CC3)C(=O)[C@@H]3CC=CC[C@H]23)cc1OC | 219 to 220 °C |
| CC(=O)Nc1ccc(C(=O)N2CC3CC(CN(Cc4ccc(Cl)cc4)C3)C2)cc1 | 181 °C |
| COc1ccccc1C=C1CCc2c1oc1ccc(C(=O)O)cc1c2=O | 273 to 275 °C |
| CCOC(Cc1ccc(NCc2ccc(O)cc2)cc1)C(=O)OC (centres undefined) | 109 to 110 °C |
| O=c1[nH]nc2n1-c1ccc(Cl)nc1C(c1ccccc1Cl)=NC2O (centres undefined) | 260 to 262 °C |
| Nc1ncnc2c1ncn2C1CC(=CF)C(O)C1O (centres undefined) | 167 to 169 °C |
| COc1cccc2c(=O)sc(C(=O)O)cc12 | 283 to 284 °C |
| O=C(O)c1cn(C2CC2)c2nc(Cl)c(F)cc2c1=O | 209 to 212 °C |
| COc1ccc(OCC(O)COc2cccc3oc(C(=O)O)cc(=O)c23)cc1 (centres undefined) | 125 to 126 °C |
| OCc1ccc(-c2cccc(-c3cn([C@H]4CN5CCC4CC5)nn3)c2)cc1 | 214 °C |

| SMILES | melting point |
| --- | --- |
| COc1ccc(N2C(=O)CN(C(C)C)C2=O)c(F)c1 | 88 to 90 °C |
| CCCCCCCCCC(=O)SCC(C)(C(=O)Nc1cccc(C(=O)O)c1C)c1ccccc1 (centres undefined) | 105 to 111 °C |
| O=C1C(=O)c2ccc(-c3ccncc3)cc2C2=C1SCC1(CCN(C(=O)c3cccc(Cl)c3)CC1)O2 | 265 to 267 °C |
| CC1C(=O)N(c2ccccc2)C(=S)N1c1ccc(Oc2ccccc2)cc1 (centres undefined) | 141 °C |
| Nc1ccc(OC23CC4CC(CC(C4)C2)C3)cc1 | 172 to 175 °C |
| CC(C)(F)Cn1c(CCO)nc2c(N)nc3cccnc3c21 | 224 to 225 °C |
| COc1cccc(NC(=O)OC2CN3CCC2CC3)c1 (centres undefined) | 130 to 132 °C |
| CN(C)C1=CC(=NS(=O)(=O)c2cccs2)c2ccccc2C1=O | 183 to 185 °C |
| CCC1(CCCCN2CCN(c3ccccn3)CC2)C(=O)Nc2ccccc21 (centres undefined) | 131 to 133 °C |
| COc1cc(-n2c(C#N)c3n(c2=O)CCCC3)c(F)cc1Cl | 173 to 175 °C |
| COc1cc(C(C)=O)ccc1OCCCCN1CCN(c2n[nH]c3cc(Cl)ccc23)CC1 | 189 to 191 °C |
| CCC(=O)N[C@@H]1Cc2ccccc2N(OC)C1=O | 98 to 99 °C |
| O=C(NOCC(O)CN1CCCCC1)Nc1ccccc1 (centres undefined) | 101 to 103 °C |
| CC(C)CN(CCc1c[nH]c2ccccc12)C(=O)CCCC(=O)O | 140 to 141 °C |
| CN1C(=O)c2c(Oc3ccccc3O)cc3[nH]c4cc(O)ccc4c3c2C1=O | 200 °C |
| COc1c(C)c2c(c(NC(=O)N(C)C)c1C/C=C(\C)CCC(=O)O)C(=O)OC2 | 170 to 190 °C |
| O=S(=O)(CC=Cc1ccccc1)CCCOC1CCCCO1 (centres undefined) | 45 °C |
| CSc1nc(-c2ccc(S(C)(=O)=O)cc2)n(-c2ccc(C)c(C)c2)c(=O)c1C#N | 245 to 247 °C |
| COc1cccc(CCOc2cccc(-c3cccc(C(=O)NCCNC(=O)OC(C)(C)C)c3)n2)c1 | 128 to 129 °C |
| CC1(C)c2cc(C#N)ccc2OC1OC(=O)CCl (centres undefined) | 138 °C |
| CCCCc1ncc(/C=C(\Cc2cccs2)C(=O)O)n1Cc1ccc(C(=O)O)cn1 | 212 to 213 °C |
| NCCc1cccc(N2C(=O)N(c3ccc(C(F)(F)F)cc3Cl)Cc3cnc(Nc4ccccc4)nc32)c1 | 102 °C |
| O=[N+]([O-])c1cc2nc(O)c(O)nc2cc1C(F)(F)F | > 300 °C |
| CN1CCC=C(c2nsnc2SCCCC(=O)O)C1 | 99 to 101 °C |
| Cc1cccc(Cl)c1OC1CN(C(=O)Cl)C1 | 67 to 69 °C |
| Oc1ccc(O)c(-c2nc3cc(O)ccc3o2)c1 | 309 to 311 °C |
